Source: article PMC4169579, “Proteolytic Activity of Prostate-Specific Antigen (PSA) towards Protein Substrates and Effect of Peptides Stimulating PSA Activity” (PLoS ONE, 2014)
Values belong to the compound of their own block, whether it stands above or below them. Positions of bridges follow the written chain, without caps; N, C: chain ends. Residues, ends and D or L forms follow the SMILES beside them. No end group written: not given here.

Experiments:
PSA [1] = target: T1, PSA (Homo sapiens, UniProt P07288); test: Proteolytic cleavage of protein substrates by PSA (SDS-PAGE, silver staining); format: biochemical; details: 0.2 µM PSA, 1 µM substrate, TBS, 37°C; disappearance of full-length band
T1 construct: from tissue; host or cells: pooled human seminal fluid
T1 sequence (P07288 25-261): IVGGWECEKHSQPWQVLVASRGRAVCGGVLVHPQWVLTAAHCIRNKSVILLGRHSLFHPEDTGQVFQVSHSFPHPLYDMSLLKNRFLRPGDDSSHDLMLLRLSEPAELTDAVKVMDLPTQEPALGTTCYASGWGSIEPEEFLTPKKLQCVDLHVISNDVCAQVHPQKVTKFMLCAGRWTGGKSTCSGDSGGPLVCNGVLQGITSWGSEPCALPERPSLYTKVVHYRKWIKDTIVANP
Description: (§1) The major form of active PSA (isoform PSA-B) was purified from pooled human seminal fluid by immunoaffinity chromatography followed by anion exchange chromatography. Semenogelins I and II were isolated from human seminal fluid as previously described, but instead of alkylating the proteins, the reducing agent 30 mM dithiothreitol (Sigma-Aldrich, St. Louis, MO) was included in all buffers during purification. Semenogelins were stored in the purification buffer containing 2 M urea and 5 mM EDTA at −70°C. Prior to cleavage by PSA, the buffer was exchanged to 50 mM Tris, pH 7.7, containing 0.15 M NaCl (TBS), with Amicon Ultra centrifugal filter units (MW cut-off 30 kDa) (Millipore, Cork, Ireland) at 4°C, and protein concentration was determined by measuring absorbance at 280 nm.
(§2) Protein LoBind tubes (Eppendorf AG, Hamburg, Germany) were used in all protein degradation experiments.
(§3) PSA (0.2–1 µM) and 0.5–1 µM of each protein substrate were incubated at 37°C for 22 h in TBS buffer. During the incubation, samples of 15 µl were taken at different time points: 0 min, 10 min, 30 min, 2 h, 5 h and 22 h, and stored at −20°C before further analysis.
Immediately after each incubation, reducing 4× SDS-loading buffer (8% SDS), containing 1 M β-mercaptoethanol or 75 mM dithiothreitol, was added to each sample and proteins were denatured at 70°C for 10 min. The samples were immediately analyzed by SDS-PAGE or frozen at −20°C. Frozen samples were heated again at 70°C before loading on the gel. The cleavage of protein substrates by PSA, i.e., the disappearance of the full-length protein bands, was quantified from scanned images of silver stained gels by the measurement of relative optical densities of the protein bands using ImageJ [40]. […]
Proteins were visualized either by silver staining or Western blotting. […] After 30 min incubation in 0.2% AgNO3, the gel was rinsed briefly with water and proteins were detected with development solution, containing 700 µl/l of 37% formaldehyde, 0.001% sodium thiosulfate and 3% anhydrous Na2CO3. […]

PSA [2] = target: T1, PSA; test: Enzyme kinetics of PSA with fluorogenic peptide substrate; format: biochemical
Description: as §1
(§4) The proteolytic activity of PSA towards small peptide substrates was compared with two different substrates. Both assays were performed in 96-well microplates (PerkinElmer, Turku, Finland) with duplicates in two separate experiments (n = 2) in TBS buffer containing 1 g/l bovine serum albumin (0.1% BSA-TBS). The chromogenic chymotrypsin substrate S-2586 (MeO-Suc-Arg-Pro-Tyr-pNA·HCl) (Chromogenix Instrumentation Laboratory, Milan, Italy) at 0.125–5 mM concentration or 0.125–2 mM fluorogenic PSA substrate 4-morpholinecarbonyl-HSSKLQ-AMC (7-amido-4-methylcoumarin) (custom peptide from JPT Peptide Technologies GmbH, Berlin, Germany) were added to the wells together with 175 nM (5 µg/ml) PSA. The absorbance was measured at 405 nm immediately and at 5 min intervals for 30 min and fluorescence at 355/460 nm (excitation/emission) after 10 min, 20 min, 40 min, 1 h, 2 h and 4 h incubation at room temperature with a Victor 1420 Multilabel plate reader (PerkinElmer). In the fluorogenic assays all wells contained 5% dimethyl sulfoxide (DMSO).
The maximum velocity of the reaction (Vmax) and the Michaelis constant (Km), i.e., substrate concentration at which the reaction rate is half of the maximum, were evaluated for PSA with both peptide substrates using Sigma Plot 11 with the Enzyme Kinetics Module 1.3 (SYSTAT Software, Inc., San Jose, CA) and the catalytic constant (kcat), i.e., the number of substrate molecules converted to product per time unit, was calculated from the equation kcat = Vmax/[PSA]. The absorbance was converted to molar concentration with the Lambert-Beer equation (A = εcl), using the molar absorptivity of pNA (εpNA = 8800 M^−1cm^−1). Fluorescence (counts per second, cps) was transformed to molar concentrations with SigmaPlot by means of a standard curve for 7-amido-4-methylcoumarin (AMC, Sigma-Aldrich).

PSA [3] = target: T1, PSA; test: Stimulation of PSA activity by peptides, chromogenic substrate; format: biochemical; details: for Emax / EC50: 350 nM PSA preincubated with 0.35–350 µM peptide 30 min room temperature, 0.2 mM chromogenic substrate S-2586, mean ± SD, n = 2; for Emax: read-out: Stimulation (maximal stimulation capacity as compared to PSA alone, Vmax (peptide+PSA)/V(PSA)); for EC50: read-out: [peptide]½Vmax (peptide concentration with half-maximal stimulation)
Description: as §1
(§5) Peptides that bind to PSA and stimulate its activity have previously been identified by phage display. […] The purity of the peptides as determined by HPLC was over 95% in all batches. We have not observed any significant variation in the capacity of the peptides to stimulate the PSA activity between different peptide batches and suppliers.
as §4
(§6) The effect of the PSA-stimulating peptides on the activity of PSA was characterized with chromogenic and fluorogenic substrates in two (n = 2) and three (n = 3) separate experiments, respectively. PSA (350 nM) was first preincubated with peptides (0.35–350 µM) for 30 min at room temperature. Then 0.2 mM chromogenic or 0.3 mM fluorogenic substrate was added and absorbance or fluorescence was measured as described above. Fluorogenic assays with the peptides were performed in black 384-well microplates (Corning Inc., Corning, NY) and all wells contained 0.75% DMSO. The velocity of the reaction (V) was calculated from the change of absorbance/min or fluorescence/min at the linear phase of the reaction and converted to molar concentration as described above. Vmax (peptide + PSA), i.e., the maximal velocity of the reaction with increasing peptide concentrations and given PSA and substrate concentrations, was determined using SigmaPlot, fitting the data to f = y0+a*(1−exp(−b*x)) using non-linear regression. The maximal stimulatory capacity of the peptide, Vmax (peptide+PSA)/V(PSA), was calculated. The peptide concentrations at which the stimulation of PSA was half of the maximum ([peptide]½Vmax) and at which PSA activity was increased two-fold when compared to PSA alone ([peptide]2V) were also determined.

PSA [4] = target: T1, PSA; test: Stimulation of PSA activity by peptides, fluorogenic substrate; format: biochemical; details: 350 nM PSA preincubated with 0.35–350 µM peptide 30 min room temperature, 0.3 mM fluorogenic substrate, 0.75% DMSO, mean ± SD, n = 3; for Emax: read-out: Stimulation (maximal stimulation capacity as compared to PSA alone, Vmax (peptide+PSA)/V(PSA)); for EC50: read-out: [peptide]½Vmax (peptide concentration with half-maximal stimulation)
Description: as §1, §5
The proteolytic activity of PSA towards small peptide substrates was compared with two different substrates. Both assays were performed in 96-well microplates (PerkinElmer, Turku, Finland) with duplicates in two separate experiments (n = 2) in TBS buffer containing 1 g/l bovine serum albumin (0.1% BSA-TBS). […] The absorbance was measured at 405 nm immediately and at 5 min intervals for 30 min and fluorescence at 355/460 nm (excitation/emission) after 10 min, 20 min, 40 min, 1 h, 2 h and 4 h incubation at room temperature with a Victor 1420 Multilabel plate reader (PerkinElmer). […]
as §6, with “PSA (350 nM) was first preincubated with peptides (0.35–350 µM) for 30 min at room temperature.” left out, “Fluorogenic assays with the peptides were performed in black 384-well microplates (Corning Inc., Corning, NY) and all wells contained 0.75% DMSO.” left out

PSA [5] = target: T1, PSA; test: Surface plasmon resonance binding of peptides to PSA; details: SPR, peptide 1.2–600 µM, PBS pH 7.4, 25°C
Description: The binding kinetics and affinity of the peptides stimulating the activity of PSA were studied by surface plasmon resonance (SPR) on a Biacore T100 instrument using Biacore T100 Control Software 2.0.3 (both from GE Healthcare, Uppsala, Sweden). PSA (20 µg/ml, 0.7 µM) and α-chymotrypsin (20 µg/ml, 0.8 µM) were covalently immobilized on the Series S Sensor Chip CM5 (GE Healthcare) by using amine coupling in 10 mM sodium acetate buffer, pH 5.0. The immobilization levels varied in different experiments between 2000–3900 resonance units (RU) for PSA and 1400–2500 RU for chymotrypsin. Chymotrypsin was used as a reference for PSA, i.e., the binding of peptides to the chymotrypsin surface was subtracted as a non-specific interaction from the binding of peptides to the PSA surface in all measurements.
Binding to PSA was studied at various peptide concentrations (1.2–600 µM) in phosphate buffered saline (PBS), pH 7.4 (Lonza, Verviers, Belgium), containing 6.7 mM PO4 and 0.15 M NaCl, with a flow rate of 40 µl/min at 25°C. Contact time of the peptides with PSA was 60 s and dissociation time 180 s. In all other steps except the peptide binding the running buffer was supplemented with 0.005% surfactant P20 (GE Healthcare). The chip was washed after each measurement cycle with the running buffer, which removed all peptides. The binding data were analyzed using Biacore T100 Evaluation software 2.0.3. […]

IGFBP-3 = test: Immunofluorometric assay of intact IGFBP-3 after incubation with PSA and peptides; format: biochemical, human; details: 0.2 µM PSA, 2.2 µM IGFBP-3, 37°C, TBS; 22 h in text (24 h in method), n = 2
Description: To study the degradation of IGFBP-3 by PSA, we used a sandwich-type immunofluorometric assay (IFMA) that measures only intact IGFBP-3, but not that cleaved by PSA [43], [44]. […] After incubation, the samples were diluted 1∶1000 in IFMA assay buffer and IGFBP-3 concentrations were measured as previously described,[44].

plasminogen = test: Plasminogen cleavage control with MMP-3; format: biochemical, human; details: 1 µM MMP-3 or PSA, 1 µM plasminogen, 37°C, 22 h, TBS
Description: as §2, §3

HUVECs = test: HUVEC tube formation assay on Matrigel; format: cell-based, human
Description: Human umbilical vein endothelial cells (HUVECs) were isolated from umbilical cord veins and grown in Endothelial Cell Growth Medium (Promocell, Heidelberg, Germany) with 2% Ultroser G BioSepra serum substitute (PALL BioSepra, Cergy, France) and growth factors EGF and bFGF. For tube formation, HUVECs were grown on top of Matrigel (BD Biosciences) as described previously, [29].
To study the effect of PSA-cleaved protein fragments, 0.08 µM nidogen-1 or 0.4 µM galectin-3 (10 µg/ml each) were first incubated with 1 µM PSA for 24 h at 37°C in PBS (Lonza). Then PSA activity was blocked by one-hour incubation at room temperature with 2 µM monoclonal antibody 5C7 [38]. The mixture containing nidogen-1 or galectin-3 fragments with PSA blocked by antibody or the same amount of intact nidogen-1 or galectin-3 were added together with the cells onto gelled Matrigel and the cells were allowed to form tubular networks for 20 h. Control wells contained either PBS or 1 µM PSA. After overnight incubation, cell culture medium was collected from PBS and PSA control wells for SDS-PAGE and Western blotting. Images of tubular networks (100×magnification) were taken using an Axiovert 200 inverted light microscope connected to an AxioCam digital camera and visualized by AxioVision software (all from Zeiss, Göttingen, Germany).

time for degradation of 50% of the protein (PSA [1]): 22 h
Compound: IGFBP-3: recombinant human insulin-like growth factor-binding protein-3

Compound: 4-morpholinecarbonyl-HSSKLQ-AMC [Fluorogenic substrate, fluorogenic PSA substrate, AMC = 7-amido-4-methylcoumarin]
kcat/Km compared to literature (PSA [2]; compared to that reported by Denmeade et al. [36]): about five-fold higher
kcat (PSA [2]; kcat = Vmax/[PSA], substrate 0.125–2 mM, 175 nM PSA, 0.1% BSA-TBS, 5% DMSO, room temperature, mean ± SD of two experiments): 0.19 ± 0.09 s⁻¹
Km (PSA [2]; substrate 0.125–2 mM, 175 nM PSA, 0.1% BSA-TBS, 5% DMSO, 355/460 nm, room temperature, 10 min to 4 h, mean ± SD of two experiments): 1580 ± 40 µM
kcat/Km (PSA [2]; substrate 0.125–2 mM, 175 nM PSA, 0.1% BSA-TBS, 5% DMSO, room temperature, mean ± SD of two experiments): 122.0±59.4 s^−1M^−1

Compound: CC(C)C[C@@H]1NC(=O)[C@H](Cc2ccc(O)cc2)NC(=O)[C@H](CC(=O)O)NC(=O)[C@H](Cc2ccc(O)cc2)NC(=O)[C@H](CC(N)=O)NC(=O)[C@H](Cc2c[nH]cn2)NC(=O)[C@H](C)NC(=O)[C@H](Cc2ccccc2)NC(=O)[C@H](C(C)C)NC(=O)[C@@H](N)CSSC[C@@H](C(N)=O)NC(=O)[C@H](C(C)C)NC1=O [B2-NH2] (H-CVFAHNYDYLVC-NH2; disulfide 1-12)
Emax (PSA [3]): 400 ± 14%
EC50 (PSA [3]): 5.13 ± 1.43 µM
Emax (PSA [4]): 391 ± 11%
EC50 (PSA [4]): 4.78 ± 1.55 µM

Compound: CVFAHNADALVC (disulfide 1-12 (inferred)) [B2-NH2-control]
binding to PSA (PSA [5]): All peptides, except the inactive B2-NH2-control peptide, bound to PSA
Stimulation of PSA activity (summary in words) (PSA [3]; towards chromogenic and fluorogenic peptide substrates (Figure 1, Table 2), B2 and B2-NH2-control: Figure 1A (chromogenic)): did not stimulate PSA activity at all

Compound: CC[C@H](C)[C@@H]1NC(=O)[C@@H]2CSSC[C@H](NC(=O)[C@H](Cc3c[nH]cn3)NC(=O)[C@H](Cc3c[nH]cn3)NC(=O)[C@H](CCC(=O)O)NC1=O)C(=O)N[C@@H](Cc1c[nH]c3ccccc13)C(=O)N[C@@H]([C@@H](C)O)C(=O)N[C@H](C(=O)O)CSSC[C@H](N)C(=O)N[C@@H](C(C)C)C(=O)N[C@@H](C)C(=O)N[C@@H](Cc1ccc(O)cc1)C(=O)N2 [C4] (H-CVAYCIEHHCWTC-OH; disulfide 1-13, 5-10)
Emax (PSA [3]): 785 ± 7%
EC50 (PSA [3]): 5.62 ± 2.17 µM
Emax (PSA [4]): 610 ± 8%
EC50 (PSA [4]): 3.72 ± 0.5 µM

Compound: PSA: major form of active PSA (isoform PSA-B) purified from pooled human seminal fluid
decrease of the content of intact IGFBP-3 (IGFBP-3): 50%
cleavage of plasminogen (plasminogen): but not PSA, cleaved 1 µM plasminogen
tube formation (HUVECs; 1 µM PSA, 20 h, HUVECs on Matrigel): reduced tube formation
effect of PSA pre-incubation of gelled Matrigel on tube formation (HUVECs; overnight pre-incubation of Matrigel with PSA, then PSA inhibited with antibody, Mattsson et al. unpublished data): did not inhibit endothelial cell tube formation

time for degradation of 50% of the protein (PSA [1]): 17 h
Compound: fibronectin
